Oligonucleotides are written 5' to 3', each unit as a sugar letter and its base; * is a phosphorothioate linkage, no mark a phosphodiester; rarer units and linkages stand in square brackets, end groups in braces. Plain capitals give the bases only. No end group written: not given here. d = 2'-deoxy (DNA)
Assays:
[1] = tested on: mouse brain microvessels; experiment: I-PACAP27 binding to isolated mouse brain microvessels; conditions: for displacement of I-PACAP27 binding by unlabeled peptide: 50 nM unlabeled peptide, 2.5 min
Experimental: Binding Study. Freshly isolated microvessels (30 μg protein) were resuspended in 45 μl of incubation buffer (129 mM NaCl, 2.5 mM KCl, 7.4 mM Na2HPO4, 1.3 mM KH2PO4, 0.63 mM CaCl2, 0.74 mM MgSO4, 5.3 mM glucose, 0.1 mM ascorbic acid, pH 7.4) containing 1% bovine serum albumin (BSA). Microvessel protein levels were determined with the Biorad DC protein assay kit (Hercules, Calif.). Incubation buffer, PACAP27 (4 μl of 0.8 nM), and any additives as indicated below were mixed with the 45 μl suspension of cells to a final volume of 60 μl (to give a final PACAP27 concentration of 53 pM) and incubated for 2.5 min at room temperature unless otherwise specified. At the end of incubation, samples were assayed for protein-bound radioactivity by vacuum filtration through Gelman Sciences glass microfiber filters (Ann Arbor, Mich.) pretreated with 0.5% polyethyleneimine. Filters were washed three times with 4 ml of incubation buffer at 4° C. The radioactivity trapped on the filters was measured using a gamma-counter. Nonspecific binding was determined in the absence of microvessels and under the above conditions was 20% of the total binding (TB). The specific binding was calculated as total binding minus non-specific binding and expressed as a percentage. All experiments were performed in triplicate on at least three occasions and the results reported as means with their standard errors.
Inhibition of Specific Binding of PACAP27. Self-inhibition was tested by adding varying amounts of unlabeled PACAP27. The percent of specific binding was calculated by taking the % TB for microvessels incubated with 0.8 nM PACAP27 as 100% and without microvessel incubation as 0%. An n of 3 was used per concentration. The fmol specifically bound was calculated by dividing the percent of specific binding by 100 and multiplying by the pM (PACAP27 and any unlabeled PACAP27 combined) of the incubation solution and by the volume. This was plotted against the nM in the media and the relation fitted to a one-site hyperbolic binding model.
Inhibition of I-PACAP27 Binding by PACAP Related Peptides. The effects of 50 nM of unlabeled PACAP27, PACAP38, the PACAP antagonists PACAP 6-27 and PACAP 6-38 (Bachem, Torrance, Calif.), and VIP (Sigma, St. Louis, Mo.) on PACAP27 specific binding was determined. Results were expressed as percent of control.

[2] = target: Type-I binding sites; conditions: anterior pituitary and hypothalamus, I-PACAP27 radioligand; cited from earlier work
[3] = Brain-to-blood efflux rate of icv P-Olg; type: in vivo, mouse; conditions: for half-life of efflux from the brain: first 20 min after icv administration; for rate of brain efflux: icv injection
Experimental: First, mice were anesthetized with an i.p. injection of 40% urethane. After the scalp was removed, a hole was made through the cranium (1.0 mm lateral and 0.5 mm posterior to bregma) with a 26-gauge needle. All of the needle except 2.5 to 3.0 mm of the tip was covered by PE-10 tubing. […] Injections were made into the lateral ventricle (icv) with a 1.0 μl Hamilton syringe.
In experiments in which brain efflux of the cocktail PS-ODNs were determined, each P-Olg (either P-19 mer or P-23 mer) was studied separately. A P-Olg (5×10^3 cpm/μl) was administered by icv injection. Mice were then decapitated at 2, 5, and 20 min after injection and the brain was removed. The amount of radioactivity present in the brain was measured by a scintillation counter. The amount of radioactivity in the brain at t=0 was estimated in mice overdosed with urethane. […] Brains from these mice were removed 10 min after injection. The log of the mean % of the injected dose of radioactivity (amount detected/amount injected*100=% Inj Dose) in each brain was plotted against time (min) and linear regression analysis was used to create a line between these time points.

[4] = CNS pharmacokinetics of iv P-Olg (influx rate, saturability, capillary depletion, regional uptake); type: in vivo, mouse; conditions: for distribution between brain capillaries and parenchyma (capillary depletion) / saturability of brain uptake: 30 min after iv; for distribution between brain capillaries and parenchyma (capillary depletion): with vascular washout; for saturability of brain uptake: co-administration of 10 μg unlabeled PS-ODN; for rate of brain uptake (Ki): iv (jugular), multiple-time regression 2-30 min; for mean regional uptake into hippocampus (HPC) versus frontal cortex (FC) and whole brain (WB): iv, 2-30 min
Experimental: For this analysis, the brain/serum ratios for time points ranging from 2 to 30 min after i.v. injection was plotted against their respective exposure times (Expt). Expt is used instead of real time because this value corrects for the clearance of the injected substance from the blood. Without this correction, the influx rate would be overestimated. […] Expt will be calculated using the following formula: Expt=[∫^toCp(t)dt]/Cpt, where t is time, Cp represents the level of radioactivity in the serum and Cpt is the level of radioactivity in the serum at time t.
(§1) Calculation of the percent of injected dose taken up per gram of tissue: For the purpose of these studies, mice were injected iv (into the jugular vein) with P-19 mer or P-23 mer (5×10^5 cpm/200 μl of Lactated Ringer's solution (Baxter Healthcare Corporation, Deerfiled, Ill.) supplemented with 1% BSA). […] Serum levels of radioactivity were determined by counting 50 μl of serum in a gamma counter.
(§2) The % of the injected dose taken up by each gram of either whole brain, brain region (hippocampus or frontal cortex) or liver tissue (% Inj dose/g brain) was calculated using the following formula: % Inj dose/g brain=100(Am/Cpt−Vi)Cpt/Inj, where Am/Cpt represents the brain/serum ratio at time t, and Inj is the mean dose injected i.v. Subtracting Vi from the tissue/serum ratio corrects for P-Olg in the vascular space of the whole tissue. This will remove the vascular component so that the quantities expressed represent only the P-Olg that has been taken up by tissue. The values for % Inj dose/g brain will be plotted against their respective time points (min).
Measuring saturability of brain uptake for cocktail ODNs: To determine if brain uptake of each individual P-Olg was saturable, 10 μg/mouse of unlabeled cocktail PS-ODN (either 19 mer or 23 mer) was included in the i.v. injection of either P-19 mer or P-23 mer at a dose of 5×10^5 cpm/200 μl of Lactated Ringer's solution supplemented with 1% BSA [LR-BSA]). Brain and serum samples were collected 30 min after i.v. injection. Results were expressed as brain/serum ratios.
In these studies, mice received an iv injection of either P-19 mer or P-23 mer at a dose of 5×10^5 cpm/200 μl LR-BSA into the jugular vein. Washout of the vascular space was performed to remove any substances that were intravascular or loosely adhered to the capillary lumen of the brain microvasculature.
Mice were anesthetized with 40% urethane and, at 30 min after i.v. injection of P-Olg into the jugular vein, the abdomen was opened and arterial blood was collected from the abdominal aorta. Next, the thorax was opened with a midline sternal incision and the descending thoracic aorta was clamped to cut off the circulation to the lower body. Both jugular veins were severed and an 18-gauge needle connected to a 20 ml syringe containing lactated Ringers (LR) solution was inserted into the left ventricle of the heart. All 20 ml of LR were infused into the mouse heart over a period of 1-2 min. This washes out the vascular space of the brain and drains out the severed jugular veins. […] Next, the homogenate was vortexed and homogenized a second time (3 strokes). All homogenization steps were performed at 4° C. on ice. […] After centrifugation, the supernatant containing the brain parenchyma was separated from the pellet (containing the brain microvasculature) and the level of radioactivity was determined with a Beckman scintillation counter.
Results from the capillary depletion experiments were expressed as the volume of distribution in the brain or capillaries for the injected substance. Volume of distribution (VD) values were expressed as tissue (parenchyma or capillary)/serum ratios and were calculated for both fractions using the following formula: VD=(cpm/gram of tissue)/(cpm/ml of serum)

[5] = Percent of iv injected dose taken up per gram of brain or liver; type: in vivo, mouse
Experimental: as §1, §2
For these studies, the PS-ODNs were delivered iv and relative uptake into the brain and liver (from 5-30 min) were studied.

[6] = target: T1, beta-F1 ATPase (Mus musculus, UniProt P56480); experiment: Brain perfusion uptake of I-PACAP27/I-PACAP38 after iv antisense; type: in vivo; conditions: single tail vein injection 24 h before study, 10 μg/mouse
T1 construct: from tissue; host or cells: brain / blood-brain barrier of living mice (CD-1; SAMP8 in the T-maze study)
T1 sequence (P56480 47-529): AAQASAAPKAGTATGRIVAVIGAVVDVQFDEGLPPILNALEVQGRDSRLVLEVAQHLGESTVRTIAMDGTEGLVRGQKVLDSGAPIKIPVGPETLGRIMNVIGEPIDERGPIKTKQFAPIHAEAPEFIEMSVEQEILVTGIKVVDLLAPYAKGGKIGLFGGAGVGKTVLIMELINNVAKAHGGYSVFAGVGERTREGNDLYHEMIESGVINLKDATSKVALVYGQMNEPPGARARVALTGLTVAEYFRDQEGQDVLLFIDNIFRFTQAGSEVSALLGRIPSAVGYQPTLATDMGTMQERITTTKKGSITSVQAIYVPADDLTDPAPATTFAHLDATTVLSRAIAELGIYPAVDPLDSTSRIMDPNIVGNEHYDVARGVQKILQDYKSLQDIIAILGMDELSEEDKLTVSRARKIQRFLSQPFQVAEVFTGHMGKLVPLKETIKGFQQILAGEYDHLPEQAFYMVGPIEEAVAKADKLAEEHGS
Experimental: To test the effectiveness of PTS-6 antisenses after their intravenous administration, two month old male CD-1 mice kept on a 12/12 hour light/dark cycle with food and water freely available were given an injection by tail vein of 0.9% saline with or without 10 μg/mouse of each of the three antisenses. To determine the specificity of the PTS-6 antisense on I-PACAP27 efflux, three other antisenses were also injected iv. These were:
After 24 h, the mice were anesthetized with urethane and both jugular veins exposed. The thorax was opened, the descending thoracic aorta clamped, both jugular veins severed, and lactated Ringer's solution containing I-PACAP27 (250,000 cpm/ml) perfused through the left ventricle of the heart at the rate of 2 ml/min. ^131I-PACAP38 (hereafter referred to as I-PACAP38) was perfused in some mice treated with PTS-6 antisense. After 5 min, the perfusion was stopped and 20 ml of lactated Ringer's solution was infused through the left ventricle of the heart to wash out the vascular space of the brain. The level of radioactivity was determined in the brain and in an aliquot of the perfusion fluid and results expressed as the brain/perfusion ratio in units of μl/g.

Substance: PACAP38: biologically active form of pituitary adenylate cyclase-activating polypeptide
- displacement of I-PACAP27 binding by unlabeled peptide ([1]; room temperature): PACAP38>PACAP27>PACAP(6-38)>PACAP(6-27)
- Kd [2]: ~0.5 nM

Substance: 5′-(_P═S)GTGTGGGCCGATGCAAACAGCAG-3′ (antisense dG*dT*dG*dT*dG*dG*dG*dC*dC*dG*dA*dT*dG*dC*dA*dA*dA*dC*dA*dG*dC*dA*dG; listed as Mus musculus) [P-23 mer]
- half-life of efflux from the brain [3]: 0.797 h
- rate of brain efflux [3]: 0.0063 % of the injected dose/min
- distribution between brain capillaries and parenchyma (capillary depletion) [4]: detected in the target tissue, the brain capillaries
- saturability of brain uptake [4]: significantly reduced
- rate of brain uptake (Ki) [4]: 0.20 µL/g/min
- mean regional uptake into hippocampus (HPC) versus frontal cortex (FC) and whole brain (WB) [4]: significantly greater
- percentage taken up by each gram of brain ([5]; 5 min after iv injection): 0.010 % Inj dose/g
- percentage taken up by each gram of liver ([5]; 5 min after iv injection): 2.71 % Inj dose/g
- percentage taken up by each gram of brain ([5]; 10 min after iv injection): 0.044 % Inj dose/g
- percentage taken up by each gram of liver ([5]; 10 min after iv injection): 5.33 % Inj dose/g
- percentage taken up by each gram of brain ([5]; 30 min after iv injection): 0.052 % Inj dose/g
- percentage taken up by each gram of liver ([5]; 30 min after iv injection): 7.67 % Inj dose/g

Substance: PACAP [PACAP27]
- time at which specific binding reached a maximum ([1]; 53 pM, room temperature): about 20 min
- displacement of I-PACAP27 binding by unlabeled peptide ([1]; room temperature): PACAP38>PACAP27>PACAP(6-38)>PACAP(6-27)
- amount of unlabeled PACAP27 above which binding was inhibited competitively ([1]; self-inhibition of I-PACAP27 binding): above 30 ng
- Kd [2]: ~0.5 nM

Substance: PACAP(6-38): PACAP antagonist (FTDSYSRYRKQMAVKKYLAAVLGKRYKQRVKNK; ends and bridges not checked)
- displacement of I-PACAP27 binding by unlabeled peptide ([1]; room temperature): PACAP38>PACAP27>PACAP(6-38)>PACAP(6-27)

Substance: 5′-(_P═S)GATCACGTACACATCGACACCAGTCGCCATGACTGAGCTT (dG*dA*dT*dC*dA*dC*dG*dT*dA*dC*dA*dC*dA*dT*dC*dG*dA*dC*dA*dC*dC*dA*dG*dT*dC*dG*dC*dC*dA*dT*dG*dA*dC*dT*dG*dA*dG*dC*dT*dT; listed as Mus musculus) [random 42-mer]
- uptake of I-PACAP27 delivered by brain perfusion [6]: no statistically significant effect

Substance: vasoactive intestinal polypeptide [VIP]
- displacement of I-PACAP27 binding by unlabeled peptide ([1]; room temperature): not affected
- Kd [2]: > 500 nM

Substance: PACAP(6-27): PACAP antagonist (FTDSYSRYRKQMAVKKYLAAVL; ends and bridges not checked)
- displacement of I-PACAP27 binding by unlabeled peptide ([1]; room temperature): PACAP38>PACAP27>PACAP(6-38)>PACAP(6-27)

Substance: 5′-(_P═S)TGATTTGGTCTCTGCAGGC-3′ (antisense dT*dG*dA*dT*dT*dT*dG*dG*dT*dC*dT*dC*dT*dG*dC*dA*dG*dG*dC; listed as Mus musculus) [P-19 mer]
- half-life of efflux from the brain [3]: 3.858 h
- rate of brain efflux [3]: 0.0013 % of the injected dose/min
- distribution between brain capillaries and parenchyma (capillary depletion) [4]: detected in the target tissue, the brain capillaries
- saturability of brain uptake [4]: not significantly decreased
- rate of brain uptake (Ki) [4]: 0.18 µL/g/min
- mean regional uptake into hippocampus (HPC) versus frontal cortex (FC) and whole brain (WB) [4]: greater than the uptake into the WB
- percentage taken up by each gram of brain ([5]; 5 min after iv injection): 0.042 % Inj dose/g
- percentage taken up by each gram of liver ([5]; 5 min after iv injection): 447 % Inj dose/g
- percentage taken up by each gram of brain ([5]; 10 min after iv injection): 0.079 % Inj dose/g
- percentage taken up by each gram of liver ([5]; 10 min after iv injection): 5.54 % Inj dose/g
- percentage taken up by each gram of brain ([5]; 30 min after iv injection): 0.116 % Inj dose/g
- percentage taken up by each gram of liver ([5]; 30 min after iv injection): 10.43 % Inj dose/g
